In brackets after ≈: the same amount, converted by molar mass. Numbered stars: 1 amine (or outer) side, 2 acyl side, 3 side chain; on linkers, the order of the positions; unused ones are H or OH. Bridge positions count the residues as written; N and C are the ends. Square brackets hold non-standard residues; d marks the D form. Peptide text beside a SMILES is read from it. * marks the point of attachment. hTyr(3S-OH,4S-OH,3'-OSO3H) = N[C@H](C(=O)O)[C@H](O)[C@@H](O)c1ccc(O)c(OS(=O)(=O)O)c1; pTerphenylCO(4''-OnC5H11) = CCCCCOc1ccc(-c2ccc(-c3ccc(C(=O)*)cc3)cc2)cc1; Orn(4R-OH,5R-OH) = O=C([C@H](C[C@@H](O)[C@@H](O)N[*:3])N[*:1])[*:2]; hTyr(3S-OH,4S-OH) = N[C@H](C(=O)O)[C@H](O)[C@@H](O)c1ccc(O)cc1; Pro(3S-OH,4S-Me) = C[C@H]1CN[C@H](C(=O)O)[C@H]1O; X1 = CCCCCOc1ccc(-c2cc(-c3ccc(C(=O)*)cc3)no2)cc1; Gln(3R-OH) = NC(=O)C[C@@H](O)[C@H](N)C(=O)O; Hyp = O=C(O)[C@@H]1C[C@@H](O)CN1
Tests used:
[1] = Inhibition of Candida albicans GFA1 using D-Fru6P and L-glutamine as substrate incubated for 30 mins by Elson-Morgan method
[2] = test system: Candida albicans; experiment: Antifungal activity against Candida albicans ATCC 10231 by CLSI-based serial dilution method; format: functional
[3] = test system: Pichia kudriavzevii; experiment: Antifungal activity against Candida krusei DSM 6128 by CLSI-based serial dilution method; format: functional
[4] = test system: Nakaseomyces glabratus; experiment: Antifungal activity against Candida glabrata DSM 11226 by CLSI-based serial dilution method; format: functional
[5] = Antifungal activity against Candida arborea KKP319 by CLSI-based serial dilution method; format: functional
[6] = test system: Candida albicans; experiment: Antifungal activity against Candida albicans K335 by agar incorporation method; format: functional
[7] = test system: Candida parapsilosis; experiment: Antifungal activity against Candida parapsilosis K332 by agar incorporation method; format: functional; details: Lodderomyces parapsilosis
[8] = test system: Candida parapsilosis; experiment: Antifungal activity against Candida parapsilosis K1154 by agar incorporation method; format: functional; details: Lodderomyces parapsilosis
[9] = test system: Cyberlindnera jadinii; experiment: Antifungal activity against Candida utilis K482 by agar incorporation method; format: functional; details: Williopsis jadinii
[10] = test system: Candida tropicalis; experiment: Antifungal activity against Candida tropicalis K337 by agar incorporation method; format: functional
[11] = test system: Pichia kudriavzevii; experiment: Antifungal activity against Candida krusei K1153 by agar incorporation method; format: functional
[12] = test system: Candida albicans; experiment: Antifungal activity against Candida albicans K1082 by agar incorporation method; format: functional
[13] = test system: Candida tropicalis; experiment: Antifungal activity against Candida tropicalis K1155 by agar incorporation method; format: functional
[14] = test system: Candida albicans; experiment: Antifungal activity against Candida albicans K1133 by agar incorporation method; format: functional
[15] = test system: Meyerozyma guilliermondii; experiment: Antifungal activity against Candida guilliermondii K334 by agar incorporation method; format: functional
[16] = Inhibition of Beta-1,3-glucan synthase in wild type Schizosaccharomyces pombe
[17] = test system: Candida albicans; experiment: Antifungal activity against Candida albicans K341 by agar incorporation method; format: functional
[18] = Inhibition of Beta-1,3-glucan synthase in Schizosaccharomyces pombe pbr1-8
[19] = Inhibition of Beta-1,3-glucan synthase in Schizosaccharomyces pombe pbr1-6
[20] = molecular target: Chitotriosidase-1 (Homo sapiens, UniProt Q13231); experiment: Inhibition of human chitinase1 incubated for 70 mins using 4MU-NAG2 as substrate by fluorescence method
Chain of Chitotriosidase-1 (Q13231 whole entry): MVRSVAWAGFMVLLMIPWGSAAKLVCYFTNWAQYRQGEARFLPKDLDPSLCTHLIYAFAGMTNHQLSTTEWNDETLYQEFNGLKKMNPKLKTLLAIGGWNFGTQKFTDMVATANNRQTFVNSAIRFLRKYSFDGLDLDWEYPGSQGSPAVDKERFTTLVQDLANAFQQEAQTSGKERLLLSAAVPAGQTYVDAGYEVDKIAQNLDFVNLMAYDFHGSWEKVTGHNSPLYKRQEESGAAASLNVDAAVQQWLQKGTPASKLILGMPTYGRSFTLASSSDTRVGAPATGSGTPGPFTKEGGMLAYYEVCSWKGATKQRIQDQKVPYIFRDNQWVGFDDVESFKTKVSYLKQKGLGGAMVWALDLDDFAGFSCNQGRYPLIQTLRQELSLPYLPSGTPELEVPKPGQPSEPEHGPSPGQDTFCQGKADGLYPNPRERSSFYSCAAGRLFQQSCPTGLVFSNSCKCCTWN

[21] = Inhibition of Saccharomyces cerevisiae CTS1 incubated for 70 mins by fluorescence method
[22] = molecular target: Endochitinase A1 (Aspergillus fumigatus, UniProt Q873Y0); experiment: Inhibition of Aspergillus fumigatus chiA1 (Arg28 to His337) expressed in Pichia pastoris incubated for 70 mins using 4MU-NAc3 as substrate by fluorescence method
Chain of Endochitinase A1 (Q873Y0 whole entry): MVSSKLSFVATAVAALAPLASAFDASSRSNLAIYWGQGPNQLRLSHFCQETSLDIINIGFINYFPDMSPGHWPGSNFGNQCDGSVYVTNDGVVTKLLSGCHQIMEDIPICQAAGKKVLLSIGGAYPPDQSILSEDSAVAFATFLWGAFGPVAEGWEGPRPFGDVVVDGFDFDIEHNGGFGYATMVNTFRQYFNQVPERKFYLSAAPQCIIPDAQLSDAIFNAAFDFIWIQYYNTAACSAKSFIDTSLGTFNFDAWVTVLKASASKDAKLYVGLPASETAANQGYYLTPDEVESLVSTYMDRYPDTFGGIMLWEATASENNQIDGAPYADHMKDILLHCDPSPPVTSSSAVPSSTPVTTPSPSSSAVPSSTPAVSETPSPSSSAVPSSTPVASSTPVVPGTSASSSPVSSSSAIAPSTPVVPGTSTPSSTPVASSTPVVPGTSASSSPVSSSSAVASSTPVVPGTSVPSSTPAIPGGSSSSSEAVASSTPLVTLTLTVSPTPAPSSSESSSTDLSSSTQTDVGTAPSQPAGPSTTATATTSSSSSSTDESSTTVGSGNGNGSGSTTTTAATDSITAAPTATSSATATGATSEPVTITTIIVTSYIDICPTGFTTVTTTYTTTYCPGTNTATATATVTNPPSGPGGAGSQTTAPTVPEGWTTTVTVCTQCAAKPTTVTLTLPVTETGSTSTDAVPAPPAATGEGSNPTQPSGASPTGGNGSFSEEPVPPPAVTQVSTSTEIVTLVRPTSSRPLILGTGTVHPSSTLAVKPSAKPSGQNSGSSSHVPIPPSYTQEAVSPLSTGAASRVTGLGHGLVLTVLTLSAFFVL

[23] = test system: Aspergillus fumigatus; experiment: Antifungal activity against Aspergillus fumigatus clinical isolate 293 infected in Hartley guinea pig model of invasive pulmonary aspergillosis assessed as pig median survival time at 10 mg/kg, sc administered until day 8 starting from day 1 post infection; format: functional, Af293; details: time 8 day
[24] = test system: Aspergillus fumigatus; experiment: Antifungal activity against Aspergillus fumigatus clinical isolate 293 infected in Hartley guinea pig model of invasive pulmonary aspergillosis assessed as percent survival of pig at 10 mg/kg, sc administered until day 8 starting from day 1 post infection; format: functional; details: Af293, sc, 192 h, time 8 day
[25] = test system: Nakaseomyces glabratus; experiment: Antifungal activity against Candida glabrata MY1381 by CLSI method; format: functional
[26] = test system: Candida albicans; experiment: Antifungal activity against Candida albicans Ca1055 by CLSI method; format: functional
[27] = test system: Candida parapsilosis; experiment: Antifungal activity against Candida parapsilosis ATCC22019 by CLSI method; format: functional; details: Lodderomyces parapsilosis
[28] = test system: Clavispora lusitaniae; experiment: Antifungal activity against Candida lusitaniae MY1396 by CLSI method; format: functional
[29] = test system: Candida albicans; experiment: Antifungal activity against Candida albicans Ca2323/ORF6.945 by CLSI method; format: functional
[30] = test system: Erythrocyte; experiment: Hemolytic activity in ICR mouse red blood cells incubated for 2 hrs by visual observation; format: ADME, cell-based
[31] = Elimination half life life in iv dosed human; details: in vivo
[32] = test system: Candida albicans; experiment: Antifungal activity against Candida albicans CY1002 infected in iv dosed ICR mouse administered as single dose measured on day 7; format: functional; details: 168 h, time 7 day
[33] = test system: Candida albicans; experiment: Antifungal activity against Candida albicans incubated for 24 hrs by CLSI method; format: functional
[34] = test system: Candida parapsilosis; experiment: Antifungal activity against Candida parapsilosis incubated for 24 hrs by CLSI method; format: functional; details: Lodderomyces parapsilosis
[35] = test system: Aspergillus fumigatus; experiment: Antifungal activity against Aspergillus fumigatus CF1083 infected in iv dosed mouse model of pulmonary aspergillosis administered once daily for 4 days and measured on day 14; format: functional; details: 336 h, time 14 day
[36] = test system: Cryptococcus neoformans; experiment: Antifungal activity against Cryptococcus neoformans H99 incubated for 72 hrs by CLSI M27A method; format: functional; details: var grubii H99
[37] = test system: Nakaseomyces glabratus; experiment: Antifungal activity against Candida glabrata incubated for 24 hrs by CLSI method; format: functional
[38] = test system: Candida tropicalis; experiment: Antifungal activity against Candida tropicalis incubated for 24 hrs by CLSI method; format: functional
[39] = test system: Pichia kudriavzevii; experiment: Antifungal activity against Candida krusei incubated for 24 hrs by CLSI method; format: functional
[40] = Inhibition of Cryptococcus neoformans (H99) 1,3-beta-glucan synthase component FKS1 using UDP-[14C]glucose as substrate; parameters: species or system Cryptococcus neoformans var. grubii H99
[41] = test system: Candida albicans; experiment: Antifungal activity against Candida albicans A9540 infected in iv dosed ICR mouse assessed as protection against fungus-induced lethal infection dosed once immediately following fungal challenge and measured on day 20 post infection; format: functional; details: 480 h, time 20 day, read-out: PD50

CC(=O)N[C@@H](CO)[C@@H](O)[C@H](O)[C@H](O)CS(=O)(=O)O
IC50 [1]: > 5000 µM | MIC [2]: 1000 µg/mL (≈ 3480 µM)

COS(=O)(=O)C[C@H]1OC(O)[C@H](NC(C)=O)[C@@H](O)[C@@H]1O (stereo partly specified)
MIC [3]: > 4000 µg/mL | MIC [4]: > 4000 µg/mL | MIC [2]: > 4000 µg/mL | MIC [5]: > 4000 µg/mL

CCC(O)/C=C/C=C\C=C\C(=O)OC[C@H]1O[C@@H](O[C@H]2[C@H](OC(=O)/C=C/C=C/C[C@H](O)/C(C)=C/C=C/CC[C@@H](C)CC)[C@@H](O)[C@@]3(OCc4cc(O)cc(O)c43)O[C@@H]2CO)[C@H](O)[C@@H](O)[C@H]1O (stereo partly specified)
MIC [6]: 0.1 µg/mL (≈ 0.111 µM) | MIC [7]: 0.1 µg/mL (≈ 0.111 µM) | MIC [8]: 0.1 µg/mL (≈ 0.111 µM) | MIC [9]: 0.1 µg/mL (≈ 0.111 µM) | MIC [10]: 0.1 µg/mL (≈ 0.111 µM) | MIC [11]: 0.1 µg/mL (≈ 0.111 µM) | MIC [12]: 0.1 µg/mL (≈ 0.111 µM) | MIC [13]: 0.1 µg/mL (≈ 0.111 µM) | MIC [14]: 0.1 µg/mL (≈ 0.111 µM) | MIC [15]: 0.1 µg/mL (≈ 0.111 µM) | IC50 [16]: 0.02 µg/mL (≈ 0.0222 µM) | MIC [17]: 0.1 µg/mL (≈ 0.111 µM) | IC50 [18]: > 250 µg/mL | IC50 [19]: > 250 µg/mL

COc1ccccc1-c1noc2nc(C)[nH]c(=O)c12
IC50 [20]: > 100 µM | IC50 [21]: 0.5 µM | IC50 [22]: 2.6 µM

COc1cc(C[C@@H](O)[C@@H]2NC(=O)[C@@H]3C[C@@H](O)CN3C(=O)[C@H]([C@@H](C)O)NC(=O)[C@H](NC[C@H]3CC[C@H](c4nnc(-c5ccc(N6CCC(OC)(C7CCCCC7)CC6)cc5)s4)CC3)C[C@@H](O)CNC(=O)[C@@H]3[C@@H](O)[C@@H](C)CN3C(=O)[C@H]([C@H](O)CCNC(CO)CO)NC2=O)ccc1O
Time [23]: 9.5 days | survival at 10 mg/kg [24]: 31.2%

COc1ccc(NC(=O)COc2cccc(OCC(C)C)c2)cc1
MIC [25]: 4 µg/mL (≈ 12.1 µM) | MIC [26]: 4 µg/mL (≈ 12.1 µM) | MIC [27]: 2 µg/mL (≈ 6.07 µM) | MIC [28]: 4 µg/mL (≈ 12.1 µM) | MIC [29]: 4 µg/mL (≈ 12.1 µM)

C[C@@H]1[C@H](O)[C@@H](C)/C=C/C=C/C=C/C=C/C=C/C=C/C=C/[C@H](O[C@@H]2O[C@H](C)[C@@H](O)[C@H](N)[C@@H]2O)C[C@@H]2O[C@](O)(C[C@@H](O)C[C@@H](O)[C@H](O)CC[C@@H](O)C[C@@H](O)CC(=O)O[C@H]1C)C[C@H](O)[C@H]2C(=O)O [AMPHOTERICIN B]
MHC [30]: 8 µg/mL

CCCCCOc1ccc(-c2ccc(-c3ccc(C(=O)N[C@H]4C[C@@H](O)[C@@H](O)NC(=O)[C@@H]5[C@@H](O)[C@@H](C)CN5C(=O)[C@H]([C@@H](C)O)NC(=O)[C@H]([C@H](O)[C@@H](O)c5ccc(O)cc5)NC(=O)[C@@H]5C[C@@H](O)CN5C(=O)[C@H]([C@@H](C)O)NC4=O)cc3)cc2)cc1 [ANIDULAFUNGIN] ({pTerphenylCO(4''-OnC5H11)}-[Orn(4R-OH,5R-OH)]T[Hyp][hTyr(3S-OH,4S-OH)]T[Pro(3S-OH,4S-Me)]; lactam 1-C)
half-life [31]: 24 h | ED50 [32]: 0.22 mg/kg

CC[C@H](C)C[C@H](C)CCCCCCCCC(=O)N[C@H]1C[C@@H](O)[C@@H](NCCN)NC(=O)[C@@H]2[C@@H](O)CCN2C(=O)[C@H]([C@H](O)CCN)NC(=O)[C@H]([C@H](O)[C@@H](O)c2ccc(O)cc2)NC(=O)[C@@H]2C[C@@H](O)CN2C(=O)[C@H]([C@@H](C)O)NC1=O [CASPOFUNGIN]
MIC90 [33]: 2 µg/mL (≈ 1.83 µM) | MIC90 [34]: 0.5 µg/mL (≈ 0.457 µM) | ED50 [35]: > 15 mg/kg | MIC [36]: 16 µg/mL (≈ 14.6 µM) | MIC90 [37]: 16 µg/mL (≈ 14.6 µM) | MIC90 [38]: 1 µg/mL (≈ 0.915 µM) | IC50 [16]: 0.3 µg/mL (≈ 0.274 µM) | IC50 [18]: 250 µg/mL (≈ 229 µM) | MIC90 [39]: 1 µg/mL (≈ 0.915 µM) | IC50 [19]: 150 µg/mL (≈ 137 µM) | Ki [40]: 0.17 µM

CCCCCOc1ccc(-c2cc(-c3ccc(C(=O)N[C@H]4C[C@@H](O)[C@@H](O)NC(=O)[C@@H]5[C@@H](O)[C@@H](C)CN5C(=O)[C@H]([C@H](O)CC(N)=O)NC(=O)[C@H]([C@H](O)[C@@H](O)c5ccc(O)c(OS(=O)(=O)O)c5)NC(=O)[C@@H]5C[C@@H](O)CN5C(=O)[C@H]([C@@H](C)O)NC4=O)cc3)no2)cc1 [MICAFUNGIN] (X1-[Orn(4R-OH,5R-OH)]T[Hyp][hTyr(3S-OH,4S-OH,3'-OSO3H)][Gln(3R-OH)][Pro(3S-OH,4S-Me)]; lactam 1-C)
half-life [31]: 10 h

CN[C@@H]1[C@H](O[C@@H]2OC[C@@H](O)[C@H](O)[C@H]2O)[C@@H](O)[C@H](O[C@H]2c3cc(C)c(C(=O)N[C@H](C)C(=O)O)c(O)c3-c3c(cc4c(c3O)C(=O)c3cc(OC)cc(O)c3C4=O)[C@@H]2O)O[C@@H]1C [PRADIMICIN A]
ED50 [41]: 8.9 mg/kg

Reference: ChEMBL document CHEMBL4715849, “Recent Progress in the Discovery of Antifungal Agents Targeting the Cell Wall” (J Med Chem, 2020)
